Assay results reported in PMC10970924 (Life, 2024).
Several values for one entry are separate records, joined by “and”; a condition that tells them apart may be missing. Identical values can stand only once.

What was measured:
MTS cytotoxicity assay = details: human
From the text: The study utilized human cell lines including PC-3 (human prostate adenocarcinoma), HSF (primary human skin fibroblasts), MDA-MB-231 (estrogen-negative breast adenocarcinoma), MCF-7 (estrogen-positive breast adenocarcinoma), MSC (multipotent stem cells derived from adipose tissue), SF-539 (brain gliosarcoma), SNB-19 (glioblastoma), A-498 (kidney carcinoma), M-14 (human melanoma), NCI-H322-M (primary bronchioalveolar carcinoma), HCT-15 (colon adenocarcinoma), and HCT-116 (colorectal intestinal carcinoma). We also used immortalized C2C12 mouse myoblasts (ATCC—CRL-1772). Cancer cell lines were obtained from the ATCC collection and generously provided by the Fox Chase Cancer Center (Philadelphia, USA). Conditionally normal cells, including skin fibroblasts and multipotent stem cells, were isolated by our group from postoperative materials (skin and subcutaneous fat) obtained from a conditionally healthy donor. Reagents and consumables for cell culture work were purchased from PanEco (Russia).
The cytotoxicity of the compounds under study was assessed using MTS assay on cell cultures. Cells were seeded into 96-well plates at a concentration of 10,000–20,000 cells/mL. […] After 2 h of incubation, the resulting water-soluble formazan was measured using the TECAN Infinite M200 Pro microplate reader at wavelengths of 555/750 nm. […]

HSF [1] = assay: Proliferation by impedance biosensor (RTCA DP Analyzer); type: cell-based; details: Homo sapiens, 72 h, incubation three days, read-out: IC50 inhibitory concentration, HSF
Method: (§1) The effect of the test compounds on the proliferation of multiple cell lines was assessed in real time using the RTCA DP Analyzer (Roche, Basel, Switzerland). For this purpose, we used specialized E-plates containing wells similar in size to a standard 96-well plate, but their bottoms were covered with microelectrodes to assess impedance. When cells adhere to the microelectrodes, the impedance of the well changes, which allows us to calculate the cell index proportional to the cell number. In the experiment, cells were seeded in the E-plate at densities of 20,000 cells per milliliter (180 μL/well). At 24 h post-cell attachment, 20 μL of compounds at various test concentrations or solvent as a control were introduced, and cells were then cultured with real-time impedance registration for 5 days.

MDA-MB-231 [2] = assay: as above; type: cell-based; details: Homo sapiens, MDA-MB-231, 72 h, incubation three days, read-out: IC50 inhibitory concentration, MDA-MB-231
Method: as §1

PC-3 = assay: as above; type: cell-based; details: Homo sapiens, PC-3, 72 h, incubation three days, read-out: IC50 inhibitory concentration, PC-3
Method: as §1

SF-539 = assay: as above; type: cell-based; details: Homo sapiens, SF-539, 72 h, incubation three days, read-out: IC50 inhibitory concentration, SF-539
Method: as §1

HCT-116 = assay: as above; type: cell-based; details: Homo sapiens, HCT-116, 72 h, incubation three days, read-out: IC50 inhibitory concentration, HCT-116
Method: as §1

MCF-7 = assay: as above; type: cell-based, human; details: test concentration selected from biosensor data
Method: as §1

HSF [3] = assay: Colony formation assay; type: cell-based; details: Homo sapiens, 72 h, incubation three days, read-out: Inhibitory concentration IC50, HSF
Method: (§2) Cells were cultured in a 24-well plate with 1 mL of DMEM nutrient medium for 24 h. […] The experiment was conducted in triplicate and in two or three independent repetitions. Only solvent was added to the control wells instead of the test compounds. Incubation with the drugs continued for three days, after which the grown colonies were washed with cold PBS solution and fixed in a fixing buffer (10% acetic acid, 10% methanol in distilled water) for 15 min. The colonies were stained with a 0.4% solution of crystal violet in 20% ethanol for 30 min and then washed 3 times with dH2O and analyzed under a microscope. The colonies were then dissolved in 10% acetic acid for 40 min on a shaker, and the absorbance of the lysate was read at 590 nm. Results were expressed as a percentage relative to the control, and a dose–response curve was plotted to determine the IC50 value.

MDA-MB-231 [4] = assay: Colony formation assay; type: cell-based; details: Homo sapiens, MDA-MB-231, 72 h, incubation three days, read-out: Inhibitory concentration IC50, MDA-MB-231
Method: as §2

NCI-H322M = assay: Colony formation assay; type: cell-based; details: Homo sapiens, 72 h, incubation three days, read-out: Inhibitory concentration IC50, NCI-H322M
Method: as §2

SNB-19 = assay: Colony formation assay; type: cell-based; details: Homo sapiens, SNB-19, 72 h, incubation three days, read-out: Inhibitory concentration IC50, SNB-19
Method: as §2

HCT-15 = assay: Colony formation assay; type: cell-based; details: Homo sapiens, HCT-15, 72 h, incubation three days, read-out: Inhibitory concentration IC50, HCT-15
Method: as §2

MCF-7 cells = assay: Apoptosis induction, Annexin V-FITC/DAPI flow cytometry; type: cell-based, human
Method: MCF-7 cells were seeded at a concentration of 15,000 cells/mL in a 6-well plate. Then, 24 h later the cells were treated with different concentrations of DOX-2 for 72 h. The nutrient medium over cells containing the floating cells was collected into tubes, and then the adherent cells were trypsinized and added to the fraction of floating cells. Then, cells were washed, placed in a binding buffer, stained with Annexin V-FITC/DAPI, and analyzed using the flow cytofluorimeter BD FACSCalibur™ (BD Biosciences, Franklin Lakes, NJ, USA). A total of 1% Triton X-100 was used as a control apoptosis inducer.

Compound	IC50 at 72 h (MTS cytotoxicity assay; MSC multipotent stem cells derived from adipose tissue)	IC50 (HSF [1])	IC50 (MDA-MB-231 [2])	IC50 (PC-3)	IC50 (SF-539)	IC50 (HCT-116)	IC50 at 72 h (MTS cytotoxicity assay)	IC20 (MCF-7; Homo sapiens, MCF7)	IC0, MCF-7 (MCF-7)	IC4, MCF-7 (MCF-7)	IC30, MCF-7 (MCF-7)	IC60, MCF-7 (MCF-7)	IC70, MCF-7 (MCF-7)	IC50 (HSF [3])	IC50 (MDA-MB-231 [4])	IC50 (NCI-H322M)	IC50 (SNB-19)	IC50 (HCT-15)	Percentage of cells in early and late apoptosis (MCF-7 cells; MCF-7, 72 h, IC20–IC60 concentrations)	Accumulation of necrotic cells (in words) (MCF-7 cells; MCF-7, concentration corresponding to IC60)
COc1cccc2c1C(=O)c1c(O)c3c(c(O)c1C2=O)C[C@@](O)(C(=O)CO)C[C@@H]3O[C@H]1C[C@H](N)[C@H](O)[C@H](C)O1 [DOX, Doxorubicin, reference compound]	1.1 ± 0.65 µM	–	–	–	–	–	–	–	–	–	–	–	–	–	–	–	–	–	–	–
COc1cccc2c1C(=O)c1c(O)c3c(c(O)c1C2=O)CC(O)(C(=O)CO)CC3OC1CC(NC(=O)/C=C/c2cnc(C)c3c2COC(C)(C)O3)C(O)C(C)O1 (centres unmarked) [DOX-2, (E)-N-(3-hydroxy-2-methyl-6-((3,5,12-trihydroxy-3-(2-hydroxyacetyl)-10-methoxy-6,11-dioxo-1,2,3,4,6,11-hexahydrotetracen-1-yl)oxy)tetrahydro-2H-pyran-4-yl)-3-(2,2,8-trimethyl-4H-[1,3]dioxino[4,5-c]pyridin-5-yl)acrylamide]	–	~100 µM	47.6 ± 26.1 µM	40.3 ± 13.5 µM	11.6 ± 8.55 µM	1.67 ± 0.02 µM	> 200 µM	1.5 µM	0.4 µM	0.7 µM	5 μM and 5 µM (IC30) μM	10 μM and 10 µM (IC60) μM	20 μM and 20 µM (IC70) μM	> 100 µM	0.34 ± 0.06 µM	> 100 µM	1.05 ± 0.34 µM	110 ± 21.9 µM	up to 25%	no accumulation of necrotic cells
